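Where inhibition never reached the appropriate level, the endpoint shown equals the highest concentration tested. Otherwise, values were interpolated linearly from a five-concentration, 48-hour dose response in 96-well plates. TGI is the concentration that stops growth completely.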

The first assay deals with MDA-N. Put plainly: NCI anticancer screen, dose series, 48 h.
Compound `CC1CC[C@@]2(OC1)OC1C[C@H]3[C@@H]4CC[C@H]5CC(OC6OC(CO)C(OC7OC(CO)C(O)C(O)C7OC7OC(CO)C(O)C(O)C7O)C(O)C6O)CCC5(C)[C@H]4CCC3(C)C1[C@@H]2C` (stereo partly specified) showed a TGI of 9.31 µM.
As to `CC1(C)N=C(C(N)=O)c2ncn(CCCO)c2N1`, the TGI was > 100 µM.
In turn, `CC(C)COP(=O)(OCC(C)C)C(NS(=O)(=O)c1ccccc1)(C(F)(F)F)C(F)(F)F` showed a TGI of 20.6 µM.
The same measure, in the same setting: the value for `CN(C)CCCN1C(=S)N(CCCN(C)C)c2c3cc(O)ccc3nc3c([N+](=O)[O-])ccc1c23` was 34.9 µM; that for `CC(O)C1CC1(CO)CNc1cc(Cl)nc(N)n1` (stereo unspecified) was > 100 µM.
With `CN(C)Cc1cc(C(=O)/C=C/c2ccc(O)cc2)cc(CN(C)C)c1O`, the TGI was > 100 µM.

The test system of a further assay is HCC-2998 colon. Description: NCI anticancer screen, dose series, 48 h.
For the compound `COCOc1ccc(Cn2c(=O)n(C)c(=O)c3c2ncn3C)cc1[N+](=O)[O-]`, the TGI was > 100 µM.
Same read-out and setting: the value for `BrC/C=C/C[P+](c1ccccc1)(c1ccccc1)c1ccccc1` was > 100 µM.
Turning to `Cc1cc(=O)c2c([nH]1)NS(=O)(=O)NC2=O`, the TGI is > 100 µM.
On to `C=CCNC(=S)/N=C/c1c(O)c2ccccc2oc1=O`, for which the TGI was > 100 µM.
`CC(=O)N(C(C)=O)C1=C2c3ccccc3N(S(=O)(=O)c3ccccc3)C2n2c(=O)n(-c3ccccc3)c(=O)n2C1` (stereo unspecified) yielded a TGI of 62.4 µM.
On to `O=C(NC(Cc1ccc(I)cc1)C(=O)O)c1ccc(I)cc1` (stereo unspecified), for which the TGI is > 77.3 µM.
As to `Nc1c(-c2cccc3ccccc23)c2ccc([N+](=O)[O-])cc2c(=O)n1-c1nc2ccccc2s1`, the TGI is > 100 µM.
With `CC1CC[C@@]2(OC1)OC1C[C@H]3[C@@H]4CC[C@H]5CC(OC6OC(CO)C(OC7OC(CO)C(O)C(O)C7OC7OC(CO)C(O)C(O)C7O)C(O)C6O)CCC5(C)[C@H]4CCC3(C)C1[C@@H]2C` (stereo partly specified), the TGI worked out at 2.06 µM.
As for `CC1(C)N=C(C(N)=O)c2ncn(CCCO)c2N1`, the TGI was > 100 µM.
Same read-out and setting: the value for `O=S(=O)(O)c1cc2ccc1/C=C\c1ccc(cc1S(=O)(=O)O)N=Nc1ccc(c(S(=O)(=O)O)c1)/C=C\c1ccc(cc1S(=O)(=O)O)N=N2` was > 100 µM.
Turning to `CC(C)COP(=O)(OCC(C)C)C(NS(=O)(=O)c1ccccc1)(C(F)(F)F)C(F)(F)F`, the TGI turned out to be 18.5 µM.
`CN(C)CCCN1C(=S)N(CCCN(C)C)c2c3cc(O)ccc3nc3c([N+](=O)[O-])ccc1c23`: the TGI is 8.02 µM.
Turning to `CC(O)C1CC1(CO)CNc1cc(Cl)nc(N)n1` (stereo unspecified), the TGI was > 100 µM.
Turning to `CN(C)Cc1cc(C(=O)/C=C/c2ccc(O)cc2)cc(CN(C)C)c1O`, the TGI was > 100 µM.

In a further assay the test system is SK-MEL-5 melanoma. Put plainly: NCI anticancer screen, dose series, 48 h.
Regarding `CC(=O)O[C@]12CCCCCC1C1(O)C(O)CCC[C@H]12` (stereo partly specified), the TGI was > 100 µM.
The compound `BrC/C=C/C[P+](c1ccccc1)(c1ccccc1)c1ccccc1` registered a TGI of 39.8 µM.
With `C=CCNC(=S)/N=C/c1c(O)c2ccccc2oc1=O`, the TGI was > 100 µM.
In turn, `CC(=O)N(C(C)=O)C1=C2c3ccccc3N(S(=O)(=O)c3ccccc3)C2n2c(=O)n(-c3ccccc3)c(=O)n2C1` (stereo unspecified) showed a TGI of 58.8 µM.
As to `O=C(NC(Cc1ccc(I)cc1)C(=O)O)c1ccc(I)cc1` (stereo unspecified), the TGI was > 100 µM.
For the compound `O=c1ccc2cc3ccc4cccc5ccc(c2o1)c3c45`, the TGI is > 100 µM.
On to `Nc1c(-c2cccc3ccccc23)c2ccc([N+](=O)[O-])cc2c(=O)n1-c1nc2ccccc2s1`, for which the TGI stood at 37.7 µM.
Still for that read-out and setting: the value for `CC1CC[C@@]2(OC1)OC1C[C@H]3[C@@H]4CC[C@H]5CC(OC6OC(CO)C(OC7OC(CO)C(O)C(O)C7OC7OC(CO)C(O)C(O)C7O)C(O)C6O)CCC5(C)[C@H]4CCC3(C)C1[C@@H]2C` (stereo partly specified) was 13.5 µM; that for `CC1(C)N=C(C(N)=O)c2ncn(CCCO)c2N1` was > 100 µM.
Regarding `O=S(=O)(O)c1cc2ccc1/C=C\c1ccc(cc1S(=O)(=O)O)N=Nc1ccc(c(S(=O)(=O)O)c1)/C=C\c1ccc(cc1S(=O)(=O)O)N=N2`, the TGI was > 100 µM.
With `CC(C)COP(=O)(OCC(C)C)C(NS(=O)(=O)c1ccccc1)(C(F)(F)F)C(F)(F)F`, the TGI amounted to 33 µM.
The same measure, in the same setting: the value for `CN(C)CCCN1C(=S)N(CCCN(C)C)c2c3cc(O)ccc3nc3c([N+](=O)[O-])ccc1c23` was 12.1 µM; that for `CC(O)C1CC1(CO)CNc1cc(Cl)nc(N)n1` (stereo unspecified) was > 100 µM.
`CN(C)Cc1cc(C(=O)/C=C/c2ccc(O)cc2)cc(CN(C)C)c1O`: the TGI stood at 38.5 µM.

In another assay the test system is NCI-H522 lung. Description: NCI anticancer screen, dose series, 48 h.
`COCOc1ccc(Cn2c(=O)n(C)c(=O)c3c2ncn3C)cc1[N+](=O)[O-]`: the TGI is > 100 µM.
Same read-out and setting: the value for `BrC/C=C/C[P+](c1ccccc1)(c1ccccc1)c1ccccc1` was 51.3 µM; that for `Cc1cc(=O)c2c([nH]1)NS(=O)(=O)NC2=O` was > 100 µM.
`C=CCNC(=S)/N=C/c1c(O)c2ccccc2oc1=O`: the TGI was > 100 µM.
Take `CC(=O)N(C(C)=O)C1=C2c3ccccc3N(S(=O)(=O)c3ccccc3)C2n2c(=O)n(-c3ccccc3)c(=O)n2C1` (stereo unspecified): the TGI was 39.5 µM.
`O=C(NC(Cc1ccc(I)cc1)C(=O)O)c1ccc(I)cc1` (stereo unspecified): the TGI is > 100 µM.
In the case of `O=c1ccc2cc3ccc4cccc5ccc(c2o1)c3c45`, the TGI was > 100 µM.
Turning to `Nc1c(-c2cccc3ccccc23)c2ccc([N+](=O)[O-])cc2c(=O)n1-c1nc2ccccc2s1`, the TGI is 6.86 µM.
In turn, `CC1CC[C@@]2(OC1)OC1C[C@H]3[C@@H]4CC[C@H]5CC(OC6OC(CO)C(OC7OC(CO)C(O)C(O)C7OC7OC(CO)C(O)C(O)C7O)C(O)C6O)CCC5(C)[C@H]4CCC3(C)C1[C@@H]2C` (stereo partly specified) came in with a TGI of 5.19 µM.
In the case of `CC1(C)N=C(C(N)=O)c2ncn(CCCO)c2N1`, the TGI was > 100 µM.
Regarding `O=S(=O)(O)c1cc2ccc1/C=C\c1ccc(cc1S(=O)(=O)O)N=Nc1ccc(c(S(=O)(=O)O)c1)/C=C\c1ccc(cc1S(=O)(=O)O)N=N2`, the TGI was > 100 µM.
`CC(C)COP(=O)(OCC(C)C)C(NS(=O)(=O)c1ccccc1)(C(F)(F)F)C(F)(F)F` came in with a TGI of 17.4 µM.
`CN(C)CCCN1C(=S)N(CCCN(C)C)c2c3cc(O)ccc3nc3c([N+](=O)[O-])ccc1c23` came in with a TGI of 9.93 µM.
The same measure, in the same setting: the value for `CC(O)C1CC1(CO)CNc1cc(Cl)nc(N)n1` (stereo unspecified) was > 100 µM; that for `CN(C)Cc1cc(C(=O)/C=C/c2ccc(O)cc2)cc(CN(C)C)c1O` was 75.6 µM.

The next assay has as its system HS 578T breast. Put plainly: NCI anticancer screen, dose series, 48 h.
The compound `Nc1c(-c2cccc3ccccc23)c2ccc([N+](=O)[O-])cc2c(=O)n1-c1nc2ccccc2s1` displayed a TGI of 20.9 µM.
The compound `CC1CC[C@@]2(OC1)OC1C[C@H]3[C@@H]4CC[C@H]5CC(OC6OC(CO)C(OC7OC(CO)C(O)C(O)C7OC7OC(CO)C(O)C(O)C7O)C(O)C6O)CCC5(C)[C@H]4CCC3(C)C1[C@@H]2C` (stereo partly specified) registered a TGI of 7.44 µM.
Take `CC1(C)N=C(C(N)=O)c2ncn(CCCO)c2N1`: the TGI is > 100 µM.
`CC(C)COP(=O)(OCC(C)C)C(NS(=O)(=O)c1ccccc1)(C(F)(F)F)C(F)(F)F` registered a TGI of 97.9 µM.
The same measure, in the same setting: the value for `CN(C)CCCN1C(=S)N(CCCN(C)C)c2c3cc(O)ccc3nc3c([N+](=O)[O-])ccc1c23` was 24.4 µM; that for `CC(O)C1CC1(CO)CNc1cc(Cl)nc(N)n1` (stereo unspecified) was > 100 µM; that for `CN(C)Cc1cc(C(=O)/C=C/c2ccc(O)cc2)cc(CN(C)C)c1O` was > 100 µM.

A further assay has as its system A549 NSCLC. Put plainly: NCI anticancer screen, dose series, 48 h.
With `CC(=O)O[C@]12CCCCCC1C1(O)C(O)CCC[C@H]12` (stereo partly specified), the TGI is > 100 µM.
`COCOc1ccc(Cn2c(=O)n(C)c(=O)c3c2ncn3C)cc1[N+](=O)[O-]`: the TGI was > 100 µM.
Take `BrC/C=C/C[P+](c1ccccc1)(c1ccccc1)c1ccccc1`: the TGI was > 100 µM.
Regarding `Cc1cc(=O)c2c([nH]1)NS(=O)(=O)NC2=O`, the TGI was > 100 µM.
The same measure, in the same setting: the value for `C=CCNC(=S)/N=C/c1c(O)c2ccccc2oc1=O` was > 100 µM; that for `CC(=O)N(C(C)=O)C1=C2c3ccccc3N(S(=O)(=O)c3ccccc3)C2n2c(=O)n(-c3ccccc3)c(=O)n2C1` (stereo unspecified) was > 100 µM; that for `O=C(NC(Cc1ccc(I)cc1)C(=O)O)c1ccc(I)cc1` (stereo unspecified) was > 100 µM.
Take `Nc1c(-c2cccc3ccccc23)c2ccc([N+](=O)[O-])cc2c(=O)n1-c1nc2ccccc2s1`: the TGI is > 53.4 µM.
As for `CC1CC[C@@]2(OC1)OC1C[C@H]3[C@@H]4CC[C@H]5CC(OC6OC(CO)C(OC7OC(CO)C(O)C(O)C7OC7OC(CO)C(O)C(O)C7O)C(O)C6O)CCC5(C)[C@H]4CCC3(C)C1[C@@H]2C` (stereo partly specified), the TGI was 7.93 µM.
As to `CC1(C)N=C(C(N)=O)c2ncn(CCCO)c2N1`, the TGI is > 100 µM.
As to `O=S(=O)(O)c1cc2ccc1/C=C\c1ccc(cc1S(=O)(=O)O)N=Nc1ccc(c(S(=O)(=O)O)c1)/C=C\c1ccc(cc1S(=O)(=O)O)N=N2`, the TGI is > 100 µM.
`CC(C)COP(=O)(OCC(C)C)C(NS(=O)(=O)c1ccccc1)(C(F)(F)F)C(F)(F)F` showed a TGI of 14.4 µM.
`CN(C)CCCN1C(=S)N(CCCN(C)C)c2c3cc(O)ccc3nc3c([N+](=O)[O-])ccc1c23` showed a TGI of 9.73 µM.
With `CC(O)C1CC1(CO)CNc1cc(Cl)nc(N)n1` (stereo unspecified), the TGI is > 100 µM.
For the compound `CN(C)Cc1cc(C(=O)/C=C/c2ccc(O)cc2)cc(CN(C)C)c1O`, the TGI was > 100 µM.

Values taken from PubChem BioAssay (NCI).
